Measured values: ChEMBL document CHEMBL5725383, “Ethynyl derivatives” (2017)

Target: Metabotropic glutamate receptor 4 (Homo sapiens, UniProt Q14833)
Experiment: Ca2+ Mobilization In Vitro Assay: About 24 hrs before an experiment, 5×10^4 cells/well were seeded in poly-D-lysine coated, black/clear-bottomed 96-well plates. The cells were loaded with 2.5 μM Fluo-4AM in loading buffer (1×HBSS, 20 mM HEPES) for 1 hr at 37° C. and washed five times with loading buffer. The cells were transferred into a Functional Drug Screening System 7000 (Hamamatsu, Paris, France), and 11 half logarithmic serial dilutions of test compound at 37° C. were added and the cells were incubated for 10-30 min. with on-line recording of fluorescence. Following this pre-incubation step, the agonist (2S)-2-amino-4-phosphonobutanoic acid (L-AP4) was added to the cells at a concentration corresponding to EC20 with on-line recording of fluorescence; in order to account for day-to-day variations in the responsiveness of cells, the EC20 of L-AP4 was determined immediately ahead of each experiment by recording of a full dose-response curve of L-AP4. Responses were measured as peak increase in fluorescence minus basal (i.e. fluorescence without addition of L-AP4), normalized to the maximal stimulatory effect obtained with saturating concentrations of L-AP4. Graphs were plotted with the % maximal stimulatory using XLfit, a curve fitting program that iteratively plots the data using Levenburg Marquardt algorithm. […]

Metabotropic glutamate receptor 4, sequence (Q14833 whole entry): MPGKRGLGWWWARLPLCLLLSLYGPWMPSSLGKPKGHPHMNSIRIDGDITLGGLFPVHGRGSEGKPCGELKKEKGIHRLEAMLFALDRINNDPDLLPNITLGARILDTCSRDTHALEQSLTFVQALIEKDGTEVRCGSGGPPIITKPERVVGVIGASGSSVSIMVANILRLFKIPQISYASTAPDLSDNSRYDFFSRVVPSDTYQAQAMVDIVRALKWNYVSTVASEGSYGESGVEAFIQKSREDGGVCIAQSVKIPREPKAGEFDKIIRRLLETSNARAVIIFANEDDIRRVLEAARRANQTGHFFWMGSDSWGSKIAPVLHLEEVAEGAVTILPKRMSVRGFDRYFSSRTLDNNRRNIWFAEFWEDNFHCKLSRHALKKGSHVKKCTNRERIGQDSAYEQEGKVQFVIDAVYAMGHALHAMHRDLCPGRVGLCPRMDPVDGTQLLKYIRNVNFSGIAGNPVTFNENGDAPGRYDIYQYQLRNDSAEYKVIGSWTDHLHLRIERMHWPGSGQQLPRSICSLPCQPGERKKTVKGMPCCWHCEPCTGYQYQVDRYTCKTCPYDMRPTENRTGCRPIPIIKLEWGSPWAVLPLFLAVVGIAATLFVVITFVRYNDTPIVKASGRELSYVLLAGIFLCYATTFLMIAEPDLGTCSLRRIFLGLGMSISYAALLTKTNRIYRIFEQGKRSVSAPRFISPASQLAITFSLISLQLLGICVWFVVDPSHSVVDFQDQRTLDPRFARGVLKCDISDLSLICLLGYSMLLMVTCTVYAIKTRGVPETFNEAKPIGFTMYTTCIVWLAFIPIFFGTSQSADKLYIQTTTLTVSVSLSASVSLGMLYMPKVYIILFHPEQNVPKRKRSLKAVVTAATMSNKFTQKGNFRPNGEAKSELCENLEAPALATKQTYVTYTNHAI

EC50: 187 nM
SMILES: O=c1[nH]c2ncsc2c(=O)n1-c1c(F)cc(C#Cc2ccccc2)cc1F
